Results on five compounds are retold here after US20090029957A1, “8-BETA-SUBSTITUTED ESTRATRIENES AS SELECTIVELY ACTIVE ESTROGENS” (priority 2007, published 2009).

The test system of experiment [1] is estrogen receptor preparations from rat prostates. The experiment is described as follows: Competitive 3H-estradiol binding, rat prostate cytosol estrogen receptor. The following applies: for Rat prost. ER(RBA): 3H-estradiol as ligand; for prost. ER/uterus ER: ratio of RBA rat prostate ER to rat uterus ER. From the text:
(§1) In this case, it is assumed that ERβ predominates in the rat prostates over ERα, and ERα predominates in rat uteri over ERβ.

Experiment [2] concerns hERβ. The following applies: cited from earlier work.
In experiment [3] the test system is estrogen receptor preparations from rat uteri. The experiment is described as follows: Competitive 3H-estradiol binding, rat uterus cytosol estrogen receptor. The conditions noted are these: 3H-estradiol as ligand.
Description: as §1

Experiment [4] relates to hERβ. The experiment can be described thus: Relative binding affinity to hERβ (Kuiper et al.). The arrangement: species or system human. The conditions noted are these: quotient of RBA hERβ to hERα.
Description: as §1

A further experiment relates to adult female rats. The experiment is described as follows: Dissociation of action of the uterus and pituitary gland (uterus growth and ovulation). Type of experiment: in vivo, rat. The conditions noted are these: s.c., four times on four consecutive days. How it is done:
The studies with respect to the action on uterus growth and ovulation (indirect effect by influencing the secretion of pituitary gland hormones) are performed on adult female rats (body weight of 220-250 g). The substances are subcutaneously administered four times on four consecutive days. The first administration is carried out in the metestrus. One day after the last administration, the autopsy is carried out. The number of oocytes in the Fallopian tube (effect on the ovulation) as well as the uterus weight are determined.

Molecules are shown by their SMILES. Where two headings read alike, the source gives them in different places.

`C[C@]12CC[C@H](O)CC1=CCC1C2CC[C@@]2(C)C1CC[C@@H]2O` (stereo partly drawn) [5-Andro-stene-diol]: in experiment [1] (Table 1, estradiol = 100), the “Rat prost. ER(RBA)” value is given as 5. Besides, the “prost. ER/uterus ER” value in experiment [1] (Table 1) amounted to 50. In the experiment with hERβ [2], the “hERβ RBA*” value was 17. Also, the “Rat uterus ER(RBA)” value in experiment [3] (Table 1, estradiol = 100) is given as 0.1. In addition, the ERβ/ERα in the experiment with hERβ [4] is 3.
`C=C[C@@]12CCc3cc(O)ccc3[C@H]1CC[C@@]1(C)[C@H]2C[C@@H](F)[C@@H]1O` [Compound 1, 8β-Vinyl-estra-1,3,5(10)-16α-fluoro-3,17β-diol]: in experiment [1] (Table 2), the “Rat prost. ER(RBA)” value was determined as 167 and the “prost. ER/uterus ER” value came to 98. Besides, the “Rat uterus ER(RBA)” value in experiment [3] (Table 2) is recorded as 1.7.
Take `C=C[C@@]12CCc3cc(O)ccc3[C@H]1CC[C@@]1(C)[C@H]2CC[C@@H]1O` [Compound 2, 8β-Vinyl-estra-1,3,5(10)-3,17β-diol]: in experiment [1] (Table 2), the “Rat prost. ER(RBA)” value was determined as 63 and the “prost. ER/uterus ER” value amounted to 90. In experiment [3] (Table 2), the “Rat uterus ER(RBA)” value amounted to 0.7.
On to `C[C@]12CCC3c4ccc(O)cc4CCC3C1CC[C@@H]2O` (stereo partly drawn) [Estradiol], for which the “ED50, dose-dependent ovulation inhibition and increase in uterus weight” value with adult female rats is on record as 0.004 mg/kg of body weight. Further, the “Rat prost. ER(RBA)” value in experiment [1] (Table 1, estradiol = 100) amounted to 100. For the same compound, the “Rat uterus ER(RBA)” value in experiment [3] (Table 1, estradiol = 100) is given as 100.
With `C[C@]12CC[C@@H]3c4ccc(O)cc4CC[C@H]3[C@@H]1C[C@@H](O)[C@@H]2O` [Estriol], the “hERβ RBA*” value in the experiment with hERβ [2] (relative binding affinity, estradiol = 100, cited from Kuiper et al.) is reported as 21.
